Measurements taken from US20250236596A1, “HYDROXYLAMINE-BASED EGFR INHIBITORS FOR TREATMENT OF CANCER WITH BRAIN METASTASES” (University of Georgia Research Foundation, Inc., priority 2022, published 2025).

Legend:
[1] = system: Salmonella strains (TA98, TA100, TA1537 and TA1535); assay type: cell-based; settings: bacterial cytotoxicity observed above
Method: Compounds were assessed for mutagenicity at Eurofins Panlabs. in 384-well plates using four Salmonella strains: TA98, to probe for frameshift mutation (with quercetin as control), TA100 and TA1535, to probe for base pair […] (with streptozotocin as control), and TA1537, to probe for frameshift mutations (with aminoacridine as control) as previously described.^21 Each compound was incubated at 37° C. for 96 h at four different concentrations (5, 10, 50, and 100 μM), with each concentration tested using 48 replicates, both with and without rat liver S9 metabolic activation. A concurrent bacterial cytotoxicity assay was ran at 0.6, 1.2, 2.5, 5, 10, 25, 50 and 100 μM to rule out false negatives. Bacterial cytotoxicity was expressed as percent of control growth (OD650). Compounds with growth of less than 60% control were flagged and considered bacterial cytotoxic. […] Significances of the positive counts between the treatment and control were determined using one-tailed Fisher's exact test.

[2] = Pharmacokinetics in SD rats (IV and PO); assay type: in vivo; settings: SD rats at the tested doses
Method: Animal experiments were performed at Pharmaron Inc. and animal use was approved by Pharmaron's Institutional Animal Care and Use Committee (IACUC) in Pharmaron (Pharmaron IACUC, Protocol #PK-M-07182022, #PK-R-06012022 and #ON-CELL-XEN-06012022) following the guidance of AAALAC. Six- to eight-week-old male SD rats (approximately 200-300 g) obtained from Si Bei Fu Laboratory Animal Technology Co., six- to eight-week-old male CD1 mice (approximately 20-30 g) obtained from Si Bei Fu Laboratory Animal Technology Co., and six- to eight-week-old female BALB/c nude mice (approximately 20-30 g) obtained from Si Bei Fu Laboratory Animal Technology Co., were used in the pharmacokinetic studies. Six- to eight-week-old female BALB/c nude mice (approximately 18-22 g) obtained from Beijing Anikeeper Biotech Co., Ltd were used in the intracranial PDX study. […]
Approximately 0.03 mL of blood was collected from the dorsal metatarsal vein (in the case of CD1 mice), 0.03 mL of blood from the orbit vein (in the case of BALB/c nude mice) or 0.2 mL of blood from the jugular vein (in the case of SD rats) at each time point. […] Concentrations of test articles in the plasma samples were determined using LC-MS/MS and WinNonlin 8.3 (Phoenix™) was used for pharmacokinetic calculations. […]

[3] = target: CYP1A2 (Homo sapiens, UniProt P05177); test: Human CYP450 inhibition in human liver microsomes, CYP1A2; assay type: in vitro ADME; settings: pooled human liver microsomes, probe phenacetin (40 μM), O-demethylation
Method: Assessment of compound 15 was carried out at Pharmaron Inc. for its potential to inhibit cytochrome P450 (CYP) isoforms using human liver microsomes. The activities tested were CYP1A2-mediated phenacetin O-demethylation, CYP2C19-mediated (S)-mephenytoin 4′-hydroxylation, CYP2C9-mediated diclofenac 4′-hydroxylation, CYP2D6-mediated dextromethorphan O-demethylation and CYP3A4-mediated midazolam 1′-hydroxylation. Concentrations of substrates were phenacetin (40 μM), mephenytoin (50 μM), diclofenac (6 μM), dextromethorphan (2 μM) and midazolam (1 μM). Probe substrates phenacetin, mephenytoin and dextromethorphan were incubated at 37° for 20 min. Probe substrates diclofenac and midazolam were incubated at 37° for 5 min. […] The reactions were initiated by adding NADPH (1 mM final concentration) after a 5 min-preincubation and the assay was ran in duplicate (n=2). Samples were analyzed by UPLC-MS/MS.

[4] = target: CYP2D6 (Homo sapiens, UniProt P10635); test: CYP2D6 time-dependent inhibition IC50-shift; assay type: in vitro ADME; settings: human liver microsomes and primary human hepatocytes; 30 min pre-incubation
Method: Incubations in human hepatocytes were carried out without pre-incubation or with a 30 min pre-incubation at 37° C., 5% CO2. The experiment was carried out at 37° C., 5% CO2 for 5 min.

[5] = system: HCC827-luc intracranial tumor; test: Intracranial PDX model with luciferase-tagged HCC827 cells; assay type: in vivo, BALB/c nude mice; settings: 10 mg/kg PO b.i.d
Method: Animal experiments were performed at Pharmaron Inc. and animal use was approved by Pharmaron's Institutional Animal Care and Use Committee (IACUC) in Pharmaron (Pharmaron IACUC, Protocol #PK-M-07182022, #PK-R-06012022 and #ON-CELL-XEN-06012022) following the guidance of AAALAC. Six- to eight-week-old male SD rats (approximately 200-300 g) obtained from Si Bei Fu Laboratory Animal Technology Co., six- to eight-week-old male CD1 mice (approximately 20-30 g) obtained from Si Bei Fu Laboratory Animal Technology Co., and six- to eight-week-old female BALB/c nude mice (approximately 20-30 g) obtained from Si Bei Fu Laboratory Animal Technology Co., were used in the pharmacokinetic studies. Six- to eight-week-old female BALB/c nude mice (approximately 18-22 g) obtained from Beijing Anikeeper Biotech Co., Ltd were used in the intracranial PDX study. Animals were housed at 20-25° C. with humidity ranging from 40-70% relative humidity, were exposed to 12 h light and dark cycles, and were supplied with food and water ab libitum.
HCC827 cells stably expressing luciferase (HCC827-luc) were injected intracranially. Briefly, 3×10^5 HCC827-luc tumor cells suspended in 2 μL RPMI1640 medium were injected into the right forebrain of anesthetized mice (anesthetic: intramuscular injection of Zoletl™ 50 (Virbac S.A)). Mice were imaged bi-weekly using IVIS Lumina Ill (Perkin Elmer). Images were acquired 10 min post intraperitoneal (IP) injection with 15 mg/mL (at 5 μL/g body weight) of D-luciferin in anesthetized mice (anesthetic: 1-2% isoflurane inhalation). On day 20 post-cellular inoculation, mice were randomized into 2 treatment groups (n=10 mice per group): 1) 1% methylcellulose as vehicle control and 2) 15 (10 mg/kg) (formulation: 1% methylcellulose), PO, b.i.d. (twice daily) dosing (12 h intervals)×7 days for 21 days. […] Body weights of all mice were measured bi-weekly throughout the study and BW change, expressed in % was calculated using the following formula.
BW change (%)=(BWDay X/BWDay 0)×100
Where, BWDay X is the BW on a given day, and BWDay 0 is BW on Day 0 (initiation of treatment). […]

Sequence of CYP2D6 (P10635 whole entry): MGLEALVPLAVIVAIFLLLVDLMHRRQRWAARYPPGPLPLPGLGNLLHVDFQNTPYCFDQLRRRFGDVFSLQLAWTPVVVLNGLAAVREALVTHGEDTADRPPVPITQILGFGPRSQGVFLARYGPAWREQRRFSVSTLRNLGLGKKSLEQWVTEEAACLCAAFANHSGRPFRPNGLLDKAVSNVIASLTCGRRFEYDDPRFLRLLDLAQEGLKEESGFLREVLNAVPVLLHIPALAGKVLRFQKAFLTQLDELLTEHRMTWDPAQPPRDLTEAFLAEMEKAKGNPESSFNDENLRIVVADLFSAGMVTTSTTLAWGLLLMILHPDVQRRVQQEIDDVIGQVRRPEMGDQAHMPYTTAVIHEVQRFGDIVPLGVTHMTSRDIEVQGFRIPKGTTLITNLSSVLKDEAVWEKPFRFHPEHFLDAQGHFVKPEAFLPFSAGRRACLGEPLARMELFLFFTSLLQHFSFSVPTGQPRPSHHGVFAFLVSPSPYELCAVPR
Sequence of CYP1A2 (P05177 whole entry, canonical isoform): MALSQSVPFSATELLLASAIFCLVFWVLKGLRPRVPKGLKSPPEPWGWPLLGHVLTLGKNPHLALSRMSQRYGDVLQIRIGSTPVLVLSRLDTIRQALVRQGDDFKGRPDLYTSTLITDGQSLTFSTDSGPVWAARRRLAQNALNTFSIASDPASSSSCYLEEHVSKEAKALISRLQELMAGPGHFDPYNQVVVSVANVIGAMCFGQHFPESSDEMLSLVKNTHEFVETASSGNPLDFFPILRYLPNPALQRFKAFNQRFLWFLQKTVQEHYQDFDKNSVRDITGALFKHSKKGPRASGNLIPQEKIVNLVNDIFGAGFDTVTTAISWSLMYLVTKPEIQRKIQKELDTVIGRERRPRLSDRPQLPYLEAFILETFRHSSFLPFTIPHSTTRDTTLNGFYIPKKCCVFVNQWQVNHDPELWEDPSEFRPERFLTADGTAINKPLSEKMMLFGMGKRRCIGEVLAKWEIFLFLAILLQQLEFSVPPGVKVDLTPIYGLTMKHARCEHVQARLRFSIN

COc1cc2ncnc(Nc3cccc(Cl)c3F)c2cc1OCCON1CCN(C)CC1 [Compound 15, N-(3-chloro-2-fluorophenyl)-7-methoxy-6-(2-((4-methylpiperazin-1-yl)oxy)ethoxy)quinazolin-4-amine]
concentration up to which negative ames result is valid [1]: up to 50 uM
adverse events or signs of toxicity [2]: No adverse events or signs of toxicity
IC50 at 20 min [3]: > 30 µM
CYP2D6 time-dependent inhibition (TDI) [4]: not to be time dependent
mean body weight loss ([5]; 21-day treatment window): ≤ 10%
adverse clinical events ([5]; 21 days): no adverse clinical events
intracranial tumor response (bioluminescence) relative to vehicle control ([5]; 21 days, P=0.0059): profound tumor regression
